Patent publication US10980765B2, “Isothiocyanatostilbenes as a novel method and product for treating cancer” (BOARD OF SUPERVISORS OF LOUISIANA STATE UNIVERSITY AND …, priority 2015, dated 2021)

What was measured:
[1] = tested on: Akt; experiment: Western blot of downstream Akt (phospho-Akt) in HGF-treated DU145 cells; assay type: cell-based; details: ˜8 μM compound, 33 ng/ml HGF 20 min, serum-free
Experimental: (§1) Western blot analysis: Cells were grown to ˜70% confluency prior to treatment. Cells were serum-starved in serum-free media for 30 minutes prior to treatment in complete media or serum-free media for the indicated times. Cell lysates were collected in Laemmli (125 mM Tris, 4% SDS, 0.01% bromophenol blue, 30% sucrose) containing 0.5% β-mercaptoethanol and boiled ˜8 minutes. Primary antibodies include: phospho-c-Met (Y1234/1235), phospho-Akt (S473), pEGFR […], pIGF-IRβ (Y1135/1136) (Cell Signaling Technology; Beverly, Mass.); α-actin (Sigma-Aldrich), c-Met (C-28) (Life Technologies). Secondary antibodies include: horseradish peroxidase-conjugated anti-rabbit and anti-mouse (GE Healthcare; Pittsburgh, Pa.). ECL 2 was used for chemiluminescent detection (Thermo Scientific; Rockford, Ill.). Densitometry was calculated using ImageJ (NIH).

[2] = tested on: DU145 cells; experiment: Wound healing; assay type: cell-based
Experimental: Cells were fixed and stained for actin. Representative images are shown. […] Data are shown as mean±S.E.M.; n=3.
For invasion (FIGS. 4C and 4D), wounded cells were overlaid with Matrigel diluted 1:5 in serum-free media; n=3.
Wound healing and invasion: DU145 cells were grown to ˜100% confluency prior to wounding with the IncuCyte™ WoundMaker™ (Essen Bioscience; Ann Arbor, Mich.) and washed once with complete media. For invasion, cells were covered with Matrigel diluted 1:5 in serum-free RPMI following wounding. […] Images were taken every 4 hours with the IncuCyte™ ZOOM imaging system (Essen Bioscience). Quadruplicate replicates were used in each experiment. Data are presented as percent wound density ±standard error of the mean (S.E.M.).

[3] = tested on: DU145 spheroids; experiment: 3D spheroid proliferation; assay type: cell-based; details: 33 ng/mL HGF, Matrigel, 72 hours
Experimental: Data are shown as the percent change in growth from T=0 to T=72 hours. For each of the six independent variables in each bar graph, a representative image at the 72 hour time point is shown. The six corresponding images below each respective bar graph
3D spheroid proliferation: Prior to seeding, cells were incubated with 2.5 ng/μl CellTracker Red (Life Technologies) in complete DMEM lacking Phenol Red for 5 minutes at room temperature then centrifuged at 1000 RPM for 5 minutes. […] The mixture of cells, treatments, and Matrigel in complete media was seeded at 2000 cells/well in a 96 well plate. The plate was centrifuged at 1000 RPM for 3 minutes to collect the cells into the bottom of the plate. Spheroid growth was imaged for up to 80 hours and analyzed for average red object area using the IncuCyte™ ZOOM software. Data are shown as percent change in spheroid growth between TO and […] with HGF normalized to 100% change in growth. Images were captured by the IncuCyte™ ZOOM imaging system and representative 10× images are shown.

[4] = tested on: MDA-MB-231/GFP human breast cancer cells; experiment: Xenograft study, orthotopic breast tumor growth; assay type: in vivo, Athymic nude mice; details: 5 mg/kg then 10 mg/kg i.p.
Description: Data are shown as average+S.E.M., *p<0.05.
Xenograft studies: All animal experiments were approved by the Institutional Animal Care and Use Committee, University of Louisiana at Monroe, and were handled in strict accordance with good animal practice as defined by the NIH guidelines. Athymic nude mice (Foxn1^nu/Foxn1^+, 4-5 weeks, female) were purchased from Harlan (Indianapolis, Ind.). The mice had free access to standard pellet food and water. The animals were acclimated to animal house facility conditions at a temperature of 18-25° C., with a relative humidity of 55 to 65% and a 12 h light/dark cycle, for one week prior to the experiments. MDA-MB-231/GFP human breast cancer cells were cultured and resuspended in serum-free DMEM medium (20 μl). After anesthesia, cell suspensions (1×10^6 cells/20 μl) were inoculated subcutaneously into the second mammary gland fat pad just beneath the nipple of each animal to generate orthotopic breast tumors. […] The mice were monitored by measuring tumor volume, body weight, and clinical observation. Tumor volume (V) was calculated by V=L/2×W^2, where L was the length and W was the width of tumors. The results are presented as average ±S.E.M. Differences among various treatment groups were determined by the analysis of variance (ANOVA) followed by Dunnett's test using PASW statistics version 18. […]

[5] = tested on: succinic dehydrogenase; details: cited from earlier work
[6] = tested on: F0F1-ATP synthase; details: cited from earlier work
[7] = molecular target: T1, c-Met (Homo sapiens, UniProt P08581); experiment: Western blot of pMet in c-Met amplified H1993 lung cancer cells without HGF; assay type: cell-based; design: endogenous in cells; details: 5 μM compound; no HGF, constitutive c-Met activation
T1 sequence (P08581 25-1390): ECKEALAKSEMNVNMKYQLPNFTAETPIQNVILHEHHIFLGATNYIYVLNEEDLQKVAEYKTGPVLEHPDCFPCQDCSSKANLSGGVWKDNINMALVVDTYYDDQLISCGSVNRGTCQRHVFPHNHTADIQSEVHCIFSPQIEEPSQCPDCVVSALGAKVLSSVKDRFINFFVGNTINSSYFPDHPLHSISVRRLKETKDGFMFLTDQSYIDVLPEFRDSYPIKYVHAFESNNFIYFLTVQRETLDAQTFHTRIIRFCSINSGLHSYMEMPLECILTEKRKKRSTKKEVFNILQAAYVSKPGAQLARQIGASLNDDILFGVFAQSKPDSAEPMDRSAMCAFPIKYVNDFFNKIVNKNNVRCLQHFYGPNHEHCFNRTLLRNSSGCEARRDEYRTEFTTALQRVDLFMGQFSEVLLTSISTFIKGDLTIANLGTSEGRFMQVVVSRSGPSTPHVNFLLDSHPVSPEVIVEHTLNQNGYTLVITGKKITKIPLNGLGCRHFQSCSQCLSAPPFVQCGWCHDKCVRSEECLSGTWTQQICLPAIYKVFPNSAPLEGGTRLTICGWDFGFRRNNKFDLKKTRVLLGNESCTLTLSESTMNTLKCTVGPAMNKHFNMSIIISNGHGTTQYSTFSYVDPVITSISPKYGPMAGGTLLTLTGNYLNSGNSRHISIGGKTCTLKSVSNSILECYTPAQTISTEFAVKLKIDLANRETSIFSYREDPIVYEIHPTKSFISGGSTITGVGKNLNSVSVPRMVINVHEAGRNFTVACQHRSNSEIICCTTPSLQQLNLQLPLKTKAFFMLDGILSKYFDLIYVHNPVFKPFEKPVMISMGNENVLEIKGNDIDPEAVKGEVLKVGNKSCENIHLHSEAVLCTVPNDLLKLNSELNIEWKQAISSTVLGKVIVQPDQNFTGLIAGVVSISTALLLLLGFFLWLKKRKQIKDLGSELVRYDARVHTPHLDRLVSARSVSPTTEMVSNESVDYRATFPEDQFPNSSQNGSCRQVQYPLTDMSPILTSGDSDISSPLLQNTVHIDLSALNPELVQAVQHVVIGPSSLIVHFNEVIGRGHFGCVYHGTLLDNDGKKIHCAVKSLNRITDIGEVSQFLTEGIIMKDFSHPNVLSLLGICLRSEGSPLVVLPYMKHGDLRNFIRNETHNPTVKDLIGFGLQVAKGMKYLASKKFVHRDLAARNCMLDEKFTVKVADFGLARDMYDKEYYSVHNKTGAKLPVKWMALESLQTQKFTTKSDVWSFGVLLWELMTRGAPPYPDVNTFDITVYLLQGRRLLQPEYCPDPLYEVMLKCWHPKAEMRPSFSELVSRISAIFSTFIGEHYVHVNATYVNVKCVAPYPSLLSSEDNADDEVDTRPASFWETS
Experimental: (§2) Western blot was used to analyze pMet expression. […] Western blot was used to analyze the indicated proteins.
H1993 cells have c-Met amplification such that they have high levels of pMet, even in the absence of HGF, due to constitutive c-Met dimerization and autophosphorylation.
as §1

[8] = molecular target: T1, c-Met; experiment: Western blot of c-Met activation (phospho-c-Met) by HGF in cancer cell lines; assay type: cell-based; design: endogenous in cells; host or cells: DU145, PC3, MDA-MB-231, HCC1806
Experimental: as §2
(§3) Western blot was used to analyze the indicated proteins.
as §3, §1

With `O=S(=O)(O)c1cc(N=C=S)ccc1C=Cc1ccc(N=C=S)cc1S(=O)(=O)O` [DIDS, 4,4′-Diisothiocyanatostilbene-2,2′-disulfonic acid] the “reduction of downstream Akt” value [1] was roughly 90%, the HGF-induced wound healing ([2]; 4 μM DIDS or 25 μM H2DIDS, 33 ng/ml HGF) was “significantly reduced” and the EGF-mediated wound healing ([2]; 4 μM DIDS or 25 μM H2DIDS, 100 ng/ml EGF) was “minimal effects”. For the same compound, the “HGF-induced wound healing, dose response” value ([2]; indicated concentrations, 33 ng/mL HGF) was “reduce HGF-induced wound healing in a dose response manner”, the “lowest concentration with some inhibitory effects on HGF-induced spheroid growth” value [3] was 40 nM and the “decrease of HGF-induced DU145 spheroid growth” value ([3]; 5 μM compound) was roughly 60%. The “tumor size (caliper)” value ([4]; 3×/week) was “began to reduce tumor size towards the end of the experiment”, the “overall tumor weight at necropsy” value ([4]; end of experiment, *p<0.05) was “Differences in overall tumor weight were evident” and the “concentration reducing activity of succinic dehydrogenase” value [5] was “low micromolar concentrations”. The “concentration reducing activity of F0F1-ATP synthase” value [6] was “low micromolar concentrations”, the “pMet levels in H1993 cells” value [7] was “much less significant effects” and the “reduction of c-Met activation” value ([8]; 8 μM compound, DU145 cells, 33 ng/ml HGF 20 min, serum-free, Western blot densitometry) was roughly 90%. The “pMet levels, compound given post HGF treatment” value ([8]; DU145, 33 ng/ml HGF 20 min, wash, then 4 μM DIDS 20 or 60 minutes) was “reduced pMet levels”, the “reversibility of c-Met inhibition after wash” value ([8]; DU145, 4 μM DIDS 20 min, one wash, recovery from 20 minutes up to 1 hour, then 33 ng/ml HGF) was “does not irreversibly bind c-Met” and the “effective concentrations for reducing c-Met activation in 10% FBS” value ([8]; DU145 cells, 33 ng/ml HGF 20 min, 10% FBS RPMI, compared with serum-free) was “slightly higher effective concentrations”. The “c-Met inhibitory effective doses” value ([8]; multiple cancer cell lines (summary)) was “low micromolar range”.
